Reference: patent US20240059671A1, “TYROSINE KINASE 2 (TYK2) DEGRADATION COMPOUNDS AND METHODS OF USE” (CULLGEN (SHANGHAI), INC., priority 2020, published 2024)

Molecular target: TYK2 (Homo sapiens, UniProt P29597)
Test: TYK2 protein degradation in MOLT-4 cells by immunoblotting
Assay type: cell-based
Design: endogenous in cells; host or cells: MOLT-4
Conditions: MOLT-4 cells, 24 hours
Procedure, shortened: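 Percent TYK2 degradation came from densitometry of chemiluminescent immunoblots of RIPA lysates. Before lysis, MOLT-4 cells had been treated for 24 h with each compound at 0.5 or 5 μM.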

Chain of TYK2 (P29597 whole entry): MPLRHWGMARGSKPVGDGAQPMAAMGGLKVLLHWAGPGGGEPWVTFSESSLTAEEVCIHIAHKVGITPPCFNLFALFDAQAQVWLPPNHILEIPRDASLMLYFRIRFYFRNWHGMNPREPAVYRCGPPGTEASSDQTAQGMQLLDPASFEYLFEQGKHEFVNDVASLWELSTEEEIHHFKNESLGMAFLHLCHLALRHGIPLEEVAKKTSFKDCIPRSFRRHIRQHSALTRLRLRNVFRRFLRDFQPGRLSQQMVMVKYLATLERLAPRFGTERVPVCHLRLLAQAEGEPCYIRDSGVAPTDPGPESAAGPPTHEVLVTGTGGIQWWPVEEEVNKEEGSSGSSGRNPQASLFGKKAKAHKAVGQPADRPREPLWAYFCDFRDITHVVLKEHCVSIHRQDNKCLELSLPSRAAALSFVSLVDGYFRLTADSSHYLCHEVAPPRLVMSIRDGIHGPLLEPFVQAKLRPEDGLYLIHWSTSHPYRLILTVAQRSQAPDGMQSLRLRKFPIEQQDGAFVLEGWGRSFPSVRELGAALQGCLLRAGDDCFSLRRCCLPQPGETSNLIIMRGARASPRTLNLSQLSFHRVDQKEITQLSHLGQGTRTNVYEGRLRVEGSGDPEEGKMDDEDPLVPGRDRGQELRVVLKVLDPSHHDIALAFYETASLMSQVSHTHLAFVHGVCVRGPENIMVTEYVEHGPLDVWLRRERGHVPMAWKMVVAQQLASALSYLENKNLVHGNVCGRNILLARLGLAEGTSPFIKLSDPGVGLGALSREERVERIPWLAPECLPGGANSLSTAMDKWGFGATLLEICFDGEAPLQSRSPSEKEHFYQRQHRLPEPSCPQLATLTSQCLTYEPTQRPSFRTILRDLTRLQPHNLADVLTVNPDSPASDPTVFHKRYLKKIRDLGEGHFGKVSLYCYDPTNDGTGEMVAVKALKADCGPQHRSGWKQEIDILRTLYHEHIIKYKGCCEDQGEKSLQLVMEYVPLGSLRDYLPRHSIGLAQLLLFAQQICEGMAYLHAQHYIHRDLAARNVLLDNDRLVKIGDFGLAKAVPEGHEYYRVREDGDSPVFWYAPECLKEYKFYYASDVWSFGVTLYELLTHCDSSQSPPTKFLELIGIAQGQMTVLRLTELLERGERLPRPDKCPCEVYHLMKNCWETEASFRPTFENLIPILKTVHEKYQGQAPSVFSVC

Compound: CNC(=O)c1nnc(NC(=O)CNC(=O)CCCCCCCCCCNC(=O)C[C@H](NC(=O)[C@@H]2C[C@@H](O)CN2C(=O)[C@@H](NC(=O)C2(F)CC2)C(C)(C)C)c2ccc(-c3scnc3C)cc2)cc1Nc1cccc(-c2ncn(C)n2)c1OC [CPD-095, 6-(2-(11-((S)-3-((2S,4R)-1-((S)-2-(1-Fluorocyclopropane-1-carboxamido)-3,3-dimethylbutanoyl)-4-hydroxypyrrolidine-2-carboxamido)-3-(4-(4-methylthiazol-5-yl)phenyl)propanamido)undecanamido)acetamido)-4-((2-methoxy-3-(1-methyl-1H-1,2,4-triazol-3-yl)phenyl)amino)-N-methylpyridazine-3-carboxamide]
- TYK2 Degradation (MOLT-4, 0.5 μM): B (B: <60% TYK2 degradation, and >20% TYK2 degradation)
- TYK2 Degradation (MOLT-4, 5 μM): A (A: ≥60% TYK2 degradation)

Compound: CNC(=O)c1nnc(Nc2ccc(N3CCN(C(=O)CCC(=O)N[C@H](C(=O)N4C[C@H](O)C[C@H]4C(=O)NCc4ccc(-c5scnc5C)cc4)C(C)(C)C)CC3)cn2)cc1Nc1cccc(-c2ncn(C)n2)c1OC [CPD-096, 6-((5-(4-(4-(((S)-1-((2S,4R)-4-Hydroxy-2-((4-(4-methylthiazol-5-yl)benzyl)carbamoyl)pyrrolidin-1-yl)-3,3-dimethyl-1-oxobutan-2-yl)amino)-4-oxobutanoyl)piperazin-1-yl)pyridin-2-yl)amino)-4-((2-methoxy-3-(1-methyl-1H-1,2,4-triazol-3-yl)phenyl)amino)-N-methylpyridazine-3-carboxamide]
- TYK2 Degradation (MOLT-4, 0.5 μM): B (B: <60% TYK2 degradation, and >20% TYK2 degradation)
- TYK2 Degradation (MOLT-4, 5 μM): C (C: ≤20% TYK2 degradation)

Compound: CNC(=O)c1nnc(Nc2ccc(N3CCN(C(=O)CCCC(=O)N[C@H](C(=O)N4C[C@H](O)C[C@H]4C(=O)NCc4ccc(-c5scnc5C)cc4)C(C)(C)C)CC3)cn2)cc1Nc1cccc(-c2ncn(C)n2)c1OC [CPD-097, 6-((5-(4-(5-(((S)-1-((2S,4R)-4-Hydroxy-2-((4-(4-methylthiazol-5-yl)benzyl)carbamoyl)pyrrolidin-1-yl)-3,3-dimethyl-1-oxobutan-2-yl)amino)-5-oxopentanoyl)piperazin-1-yl)pyridin-2-yl)amino)-4-((2-methoxy-3-(1-methyl-1H-1,2,4-triazol-3-yl)phenyl)amino)-N-methylpyridazine-3-carboxamide]
- TYK2 Degradation (MOLT-4, 0.5 μM): B (B: <60% TYK2 degradation, and >20% TYK2 degradation)
- TYK2 Degradation (MOLT-4, 5 μM): C (C: ≤20% TYK2 degradation)

Compound: CNC(=O)c1nnc(Nc2ccc(N3CCN(C(=O)CCCCC(=O)N[C@H](C(=O)N4C[C@H](O)C[C@H]4C(=O)NCc4ccc(-c5scnc5C)cc4)C(C)(C)C)CC3)cn2)cc1Nc1cccc(-c2ncn(C)n2)c1OC [CPD-098, 6-((5-(4-(6-(((S)-1-((2S,4R)-4-Hydroxy-2-((4-(4-methylthiazol-5-yl)benzyl)carbamoyl)pyrrolidin-1-yl)-3,3-dimethyl-1-oxobutan-2-yl)amino)-6-oxohexanoyl)piperazin-1-yl)pyridin-2-yl)amino)-4-((2-methoxy-3-(1-methyl-1H-1,2,4-triazol-3-yl)phenyl)amino)-N-methylpyridazine-3-carboxamide]
- TYK2 Degradation (MOLT-4, 0.5 μM): C (C: ≤20% TYK2 degradation)
- TYK2 Degradation (MOLT-4, 5 μM): C (C: ≤20% TYK2 degradation)

Compound: CNC(=O)c1nnc(Nc2ccc(N3CCN(C(=O)CCCCCC(=O)N[C@H](C(=O)N4C[C@H](O)C[C@H]4C(=O)NCc4ccc(-c5scnc5C)cc4)C(C)(C)C)CC3)cn2)cc1Nc1cccc(-c2ncn(C)n2)c1OC [CPD-099, 6-((5-(4-(7-(((S)-1-((2S,4R)-4-hydroxy-2-((4-(4-methylthiazol-5-yl)benzyl)carbamoyl)pyrrolidin-1-yl)-3,3-dimethyl-1-oxobutan-2-yl)amino)-7-oxoheptanoyl)piperazin-1-yl)pyridin-2-yl)amino)-4-((2-methoxy-3-(1-methyl-JH-1,2,4-triazol-3-yl)phenyl)amino)-N-methylpyridazine-3-carboxamide]
- TYK2 Degradation (MOLT-4, 0.5 μM): A (A: ≥60% TYK2 degradation)
- TYK2 Degradation (MOLT-4, 5 μM): B (B: <60% TYK2 degradation, and >20% TYK2 degradation)

Compound: CNC(=O)c1nnc(Nc2ccc(N3CCN(C(=O)CCCCCCC(=O)N[C@H](C(=O)N4C[C@H](O)C[C@H]4C(=O)NCc4ccc(-c5scnc5C)cc4)C(C)(C)C)CC3)cn2)cc1Nc1cccc(-c2ncn(C)n2)c1OC [CPD-100, 6-((5-(4-(8-(((S)-1-((2S,4R)-4-hydroxy-2-((4-(4-methylthiazol-5-yl)benzyl)carbamoyl)pyrrolidin-1-yl)-3,3-dimethyl-1-oxobutan-2-yl)amino)-8-oxooctanoyl)piperazin-1-yl)pyridin-2-yl)amino)-4-((2-methoxy-3-(1-methyl-1H-1,2,4-triazol-3-yl)phenyl)amino)-N-methylpyridazine-3-carboxamide]
- TYK2 Degradation (MOLT-4, 0.5 μM): A (A: ≥60% TYK2 degradation)
- TYK2 Degradation (MOLT-4, 5 μM): B (B: <60% TYK2 degradation, and >20% TYK2 degradation)

Compound: CNC(=O)c1nnc(NC(=O)CNC(=O)COc2cc(-c3scnc3C)ccc2CNC(=O)[C@@H]2C[C@@H](O)CN2C(=O)[C@@H](NC(=O)C2(F)CC2)C(C)(C)C)cc1Nc1cccc(-c2ncn(C)n2)c1OC [CPD-101, 6-(2-(2-(2-(((2S,4R)-1-((S)-2-(1-Fluorocyclopropane-1-carboxamido)-3,3-dimethylbutanoyl)-4-hydroxypyrrolidine-2-carboxamido)methyl)-5-(4-methylthiazol-5-yl)phenoxy)acetamido)acetamido)-4-((2-methoxy-3-(1-methyl-1H-1,2,4-triazol-3-yl)phenyl)amino)-N-methylpyridazine-3-carboxamide]
- TYK2 Degradation (MOLT-4, 0.5 μM): C (C: ≤20% TYK2 degradation)
- TYK2 Degradation (MOLT-4, 5 μM): C (C: ≤20% TYK2 degradation)

Compound: CNC(=O)c1nnc(NC(=O)CNC(=O)CCOc2cc(-c3scnc3C)ccc2CNC(=O)[C@@H]2C[C@@H](O)CN2C(=O)[C@@H](NC(=O)C2(F)CC2)C(C)(C)C)cc1Nc1cccc(-c2ncn(C)n2)c1OC [CPD-102, 6-(2-(3-(2-(((2S,4R)-1-((S)-2-(1-Fluorocyclopropane-1-carboxamido)-3,3-dimethylbutanoyl)-4-hydroxypyrrolidine-2-carboxamido)methyl)-5-(4-methylthiazol-5-yl)phenoxy)propanamido)acetamido)-4-((2-methoxy-3-(1-methyl-1H-1,2,4-triazol-3-yl)phenyl)amino)-N-methylpyridazine-3-carboxamide]
- TYK2 Degradation (MOLT-4, 0.5 μM): C (C: ≤20% TYK2 degradation)
- TYK2 Degradation (MOLT-4, 5 μM): C (C: ≤20% TYK2 degradation)

Compound: CNC(=O)c1nnc(NC(=O)CNC(=O)CCCOc2cc(-c3scnc3C)ccc2CNC(=O)[C@@H]2C[C@@H](O)CN2C(=O)[C@@H](NC(=O)C2(F)CC2)C(C)(C)C)cc1Nc1cccc(-c2ncn(C)n2)c1OC [CPD-103, 6-(2-(4-(2-(((2S,4R)-1-((S)-2-(1-Fluorocyclopropane-1-carboxamido)-3,3-dimethylbutanoyl)-4-hydroxypyrrolidine-2-carboxamido)methyl)-5-(4-methylthiazol-5-yl)phenoxy)butanamido)acetamido)-4-((2-methoxy-3-(1-methyl-1H-1,2,4-triazol-3-yl)phenyl)amino)-N-methylpyridazine-3-carboxamide]
- TYK2 Degradation (MOLT-4, 0.5 μM): C (C: ≤20% TYK2 degradation)
- TYK2 Degradation (MOLT-4, 5 μM): C (C: ≤20% TYK2 degradation)

Compound: CNC(=O)c1nnc(NC(=O)CNC(=O)CCCCOc2cc(-c3scnc3C)ccc2CNC(=O)[C@@H]2C[C@@H](O)CN2C(=O)[C@@H](NC(=O)C2(F)CC2)C(C)(C)C)cc1Nc1cccc(-c2ncn(C)n2)c1OC [CPD-104, 6-(2-(5-(2-(((2S,4R)-1-((S)-2-(1-Fluorocyclopropane-1-carboxamido)-3,3-dimethylbutanoyl)-4-hydroxypyrrolidine-2-carboxamido)methyl)-5-(4-methylthiazol-5-yl)phenoxy)pentanamido)acetamido)-4-((2-methoxy-3-(1-methyl-1H-1,2,4-triazol-3-yl)phenyl)amino)-N-methylpyridazine-3-carboxamide]
- TYK2 Degradation (MOLT-4, 0.5 μM): C (C: ≤20% TYK2 degradation)
- TYK2 Degradation (MOLT-4, 5 μM): C (C: ≤20% TYK2 degradation)

Compound: CNC(=O)c1nnc(NC(=O)CNC(=O)CCCCCOc2cc(-c3scnc3C)ccc2CNC(=O)[C@@H]2C[C@@H](O)CN2C(=O)[C@@H](NC(=O)C2(F)CC2)C(C)(C)C)cc1Nc1cccc(-c2ncn(C)n2)c1OC [CPD-105, 6-(2-(6-(2-(((2S,4R)-1-((S)-2-(1-Fluorocyclopropane-1-carboxamido)-3,3-dimethylbutanoyl)-4-hydroxypyrrolidine-2-carboxamido)methyl)-5-(4-methylthiazol-5-yl)phenoxy)hexanamido)acetamido)-4-((2-methoxy-3-(1-methyl-1H-1,2,4-triazol-3-yl)phenyl)amino)-N-methylpyridazine-3-carboxamide]
- TYK2 Degradation (MOLT-4, 0.5 μM): C (C: ≤20% TYK2 degradation)
- TYK2 Degradation (MOLT-4, 5 μM): C (C: ≤20% TYK2 degradation)

Compound: CNC(=O)c1nnc(NC(=O)CNC(=O)CCCCCCOc2cc(-c3scnc3C)ccc2CNC(=O)[C@@H]2C[C@@H](O)CN2C(=O)[C@@H](NC(=O)C2(F)CC2)C(C)(C)C)cc1Nc1cccc(-c2ncn(C)n2)c1OC [CPD-106, 6-(2-(7-(2-(((2S,4R)-1-((S)-2-(1-Fluorocyclopropane-1-carboxamido)-3,3-dimethylbutanoyl)-4-hydroxypyrrolidine-2-carboxamido)methyl)-5-(4-methylthiazol-5-yl)phenoxy)heptanamido)acetamido)-4-((2-methoxy-3-(1-methyl-1H-1,2,4-triazol-3-yl)phenyl)amino)-N-methylpyridazine-3-carboxamide]
- TYK2 Degradation (MOLT-4, 0.5 μM): C (C: ≤20% TYK2 degradation)
- TYK2 Degradation (MOLT-4, 5 μM): C (C: ≤20% TYK2 degradation)
